Among the data in ChEMBL document CHEMBL1132770, “Selective kappa-opioid antagonists related to naltrindole. Effect of side-chain spacer in the 5'-amidinoalkyl series” (Bioorg Med Chem Lett, 2000) are Ki values, retold here.

Assay [1] concerns the target T1, Mu-type opioid receptor (Homo sapiens, UniProt P35372). Briefly: Compound was evaluated for its binding affinity by displacing DAMGO to human cloned mu opioid receptor transfected into CHO cells using [35S]GTP-gamma-S, assay. Format: functional, cell-based. (GTPγS resists hydrolysis and so accumulates on activated G proteins.)
For assay [2], the target named is T1, Mu-type opioid receptor. Description: Compound was evaluated for its binding affinity against CHO cells transfected with cloned human Opioid receptor mu 1 by displacing [3H]DAMGO. The class given is cell-based.
Assay [3] has as its target T2, Kappa-type opioid receptor (Homo sapiens, UniProt P41145). Description: Compound was evaluated for its binding affinity by displacing [3H]U-69593 to human cloned Kappa opioid receptor transfected into CHO cells using [35S]GTP-gamma-S, assay. Format: functional, cell-based.
Assay [4] deals with T3, Delta-type opioid receptor (Homo sapiens, UniProt P41143). Description: Compound was evaluated for functional opioid activity by stimulation of [35S]GTP-gamma-S, in cloned human Opioid receptor delta 1 transfected into CHO cells. The class given is cell-based.
T3 sequence (P41143 whole entry): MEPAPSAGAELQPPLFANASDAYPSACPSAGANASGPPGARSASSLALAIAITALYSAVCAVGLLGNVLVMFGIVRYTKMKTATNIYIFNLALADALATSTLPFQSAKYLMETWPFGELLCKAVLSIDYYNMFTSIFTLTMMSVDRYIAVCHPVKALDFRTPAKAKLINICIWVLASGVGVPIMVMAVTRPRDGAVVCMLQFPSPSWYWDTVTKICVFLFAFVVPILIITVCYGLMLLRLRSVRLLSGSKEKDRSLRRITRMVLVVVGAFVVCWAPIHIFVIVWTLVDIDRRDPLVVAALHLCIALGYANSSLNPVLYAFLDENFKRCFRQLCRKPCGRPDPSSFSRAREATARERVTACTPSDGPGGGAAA
Assay [5] has as its target T2, Kappa-type opioid receptor. Briefly: Compound was evaluated for its binding affinity to CHO cells expressing cloned human Opioid receptor kappa 1 by displacing [3H]U-69593. Format: cell-based.
The target in assay [6] is T3, Delta-type opioid receptor. Description: Compound was evaluated for its binding affinity to CHO cells expressing cloned human Opioid receptor delta 1 by displacement of [3H]Cl-DPDPE. Format: cell-based. On the technique in general: Loss of bound radioactivity is the signal in a displacement assay; it reports binding, not function.
In assay [7] the target is T3, Delta-type opioid receptor. Description: Compound was evaluated for its binding affinity to CHO cells expressing cloned human Opioid receptor delta 1 by displacement of [3H]-Cl-DPDPE. Format: cell-based.
Assay [8] deals with Mu-type opioid receptor (Cavia porcellus, UniProt P97266). Briefly: Compound was evaluated for its binding affinity against Opioid receptor mu 1 of guinea pig brain membrane by displacing [3H]DAMGO.
Mu-type opioid receptor (Cavia porcellus, UniProt P97266), sequence (P97266 whole entry): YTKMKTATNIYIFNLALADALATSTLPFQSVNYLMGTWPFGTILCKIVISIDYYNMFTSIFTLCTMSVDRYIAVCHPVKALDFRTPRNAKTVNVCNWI

SMILES strings stand for the structures.

The term Ki denotes a dissociation constant, usually derived from enzyme kinetics or from competition with a known ligand.

T1 sequence (P35372 whole entry): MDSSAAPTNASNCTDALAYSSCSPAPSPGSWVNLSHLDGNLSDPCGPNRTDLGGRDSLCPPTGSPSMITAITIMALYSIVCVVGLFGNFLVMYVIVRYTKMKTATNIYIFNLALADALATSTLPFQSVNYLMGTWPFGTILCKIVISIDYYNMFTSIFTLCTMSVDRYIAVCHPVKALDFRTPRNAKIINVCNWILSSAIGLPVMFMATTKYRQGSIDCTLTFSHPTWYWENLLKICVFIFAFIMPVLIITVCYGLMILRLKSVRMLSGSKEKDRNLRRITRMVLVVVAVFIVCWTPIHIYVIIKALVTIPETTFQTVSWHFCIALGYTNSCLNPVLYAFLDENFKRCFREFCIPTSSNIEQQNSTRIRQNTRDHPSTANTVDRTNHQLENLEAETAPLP
T2 sequence (P41145 whole entry): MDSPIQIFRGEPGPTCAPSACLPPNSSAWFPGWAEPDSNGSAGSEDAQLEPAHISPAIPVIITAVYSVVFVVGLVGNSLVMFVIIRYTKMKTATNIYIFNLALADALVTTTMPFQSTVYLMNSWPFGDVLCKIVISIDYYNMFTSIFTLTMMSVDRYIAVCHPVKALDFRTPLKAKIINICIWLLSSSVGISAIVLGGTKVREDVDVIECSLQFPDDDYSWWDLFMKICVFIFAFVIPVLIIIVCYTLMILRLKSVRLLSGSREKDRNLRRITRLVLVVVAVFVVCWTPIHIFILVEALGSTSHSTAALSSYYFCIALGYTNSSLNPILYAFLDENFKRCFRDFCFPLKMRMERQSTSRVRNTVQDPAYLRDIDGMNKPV

For the compound `CCCCC(=N)NCCc1ccc2[nH]c3c(c2c1)C[C@@]1(O)C2Cc4ccc(O)c5c4C1(CCN2CC1CC1)C3O5` (some centres undefined), the Ki worked out at 5.33 nM at Mu-type opioid receptor [1]; 219 nM on Mu-type opioid receptor [2]; 0.17 nM in assay [3]; 3.31 nM in assay [4]; 0.3 nM in assay [5]; 38.2 nM in assay [6].

In the case of `CCCCC(=N)NCc1ccc2[nH]c3c(c2c1)C[C@@]1(O)C2Cc4ccc(O)c5c4C1(CCN2CC1CC1)C3O5` (some centres undefined), the Ki is 5.5 nM in assay [7] and 3.5 nM on Mu-type opioid receptor [8].

On to `NCCc1ccc2[nH]c3c(c2c1)C[C@@]1(O)C2Cc4ccc(O)c5c4C1(CCN2CC1CC1)C3O5` (some centres undefined), for which the Ki was determined as 17.4 nM at Mu-type opioid receptor [1]; 29.6 nM at Mu-type opioid receptor [2]; 0.12 nM in assay [3]; 3.79 nM in assay [4]; 1.08 nM in assay [5]; 28.2 nM in assay [6].
